Our source for the mass density values is the NIST ThermoML archive (doi:10.1016/j.jct.2012.04.017).

The conditions of this series: 101.33 kPa, Liquid, Vibrating tube method.

SMILES strings stand for the structures. ± gives the expanded uncertainty stated by the source.

For `CCCCCCCCCCn1cc[n+](C)c1.N#C[B-](C#N)(C#N)C#N` [1-decyl-3-methyl-1H-imidazolium tetracyanoborate], the mass density (commonly the mass of a sample divided by its volume) (298.15 K) is listed as 955.57 ± 0.12 kg/m3.

For `CCCCCCn1cc[n+](C)c1.N#C[B-](C#N)(C#N)C#N` [1-hexyl-3-methylimidazolium tetracyanoborate], the mass density (298.15 K) is listed as 983.03 ± 0.24 kg/m3.

Turning to `CCCCO` [butan-1-ol], the mass density (298.15 K) was determined as 798.06 ± 0.15 kg/m3.

As for `CCCCCCCCCCCCCC[P+](CCCCCC)(CCCCCC)CCCCCC.N#C[B-](C#N)(C#N)C#N` [trihexyltetradecylphosphonium tetracyanoborate], the mass density reads like this: (298.15 K) 891.05 ± 0.23 kg/m3; (308.15 K) 884.97 ± 0.23 kg/m3; (318.15 K) 879.06 ± 0.23 kg/m3; (328.15 K) 873.16 ± 0.23 kg/m3; (338.15 K) 867.25 ± 0.24 kg/m3; (348.15 K) 861.36 ± 0.24 kg/m3.
